# Where two headings read alike, the source gives them in different places.
# How the values were obtained:
# SARS-CoV-2 (WK-521) [1] = assay: Anti-SARS-CoV-2 effect, assay with VeroE6/TMPRSS2 cells (inhibition of virus-induced cell death, Cell Counting Kit-8); assay type: cell-based; settings: for EC50: VeroE6/TMPRSS2 cells, MOI=0.01, 3 days of culture, read-out: EC50: 50% effective concentration (concentration of agent which inhibits cell death induced by SARS-CoV-2 infection by 50%)
# VeroE6/TMPRSS2 cells [2] = assay: Cytotoxicity in uninfected VeroE6/TMPRSS2 cells (viable cell number, Cell Counting Kit-8); settings: read-out: CC50: 50% cytotoxic concentration (concentration of agent which reduces the number of viable cells by 50%), 3 days of culture
# in vitro [3] = settings: African green monkey
# VeroE6/TMPRSS2 cells [4] = settings: African green monkey, 3 days
# SARS-CoV-2 (WK-521) [5] = assay: microbe, parasite or virus in culture; assay type: cell-based; settings: Severe acute respiratory syndrome coronavirus 2, HEK-293T, 72 h, HEK293T/ACE2 cells, MOI=0.1, 3 days, qPCR of viral RNA in supernatant; for IC90: read-out: IC50(μM) (footnote defines IC90: 90% inhibitory concentration); for IC50: read-out: IC50: 50% inhibitory concentration (reduces viral production and replication by 50%)
# in vitro [6] = settings: human
# HEK293T/ACE2 cells = settings: human, 3 days
Molecule,EC50 (SARS-CoV-2 (WK-521) [1]) [µM],CC50 at 3 days (in vitro [3]) [µM],IC90 (SARS-CoV-2 (WK-521) [5]) [µM],IC50 (SARS-CoV-2 (WK-521) [5]) [µM],CC50 at 3 days (in vitro [6]) [µM],also measured
"5-butyl-2-(1′,1′,1′,3′,3′,3′-hexafluoro-2′-hydroxypropan-2′-yl)-7,8,9-trimethoxy-phenanthridin-6(5H)-one [KZ39]",8.6,,,,,CC50 (VeroE6/TMPRSS2 cells [2]): > 10 µM
CCCCn1c(=O)c2ccccc2c2cc(C(O)(C(F)(F)F)C(F)(F)F)ccc21 [HA-579],8.7,> 10,,,,
"CCCCn1c(=O)c2ccccc2c2cc(C(O)(C(F)(F)F)C(F)(F)F)c3c(c21)OCO3 [HA-718, 4-butyl-11-(1′,1′,1′,3′,3′,3′-hexafluoro-2′-hydroxypropan-2′-yl)-[1,3]dioxolo [4,5-c]phenanthridin-5(4H)-one]",3.1,> 10,,,,
"CCCCn1c(=O)c2cc(OC)ccc2c2cc(C(O)(C(F)(F)F)C(F)(F)F)c3c(c21)OCO3 [HA-719, 4-butyl-11-(1′,1′,1′,3′,3′,3′-hexafluoro-2′-hydroxypropan-2′-yl)-7-methoxy-[1,3]dioxolo[4,5-c]phenanthridin-5(4H)-one]",2.6,> 10,,,,"cell death due to SARS-CoV-2 infection observed under a microscope (FIG. 2) (SARS-CoV-2 (WK-521) [1]; 5 μM of HA-719, VeroE6/TMPRSS2 cells): almost no cell death was observed"
"CCCCn1c(=O)c2cc(OC)ccc2c2cc(C(O)(C(F)(F)F)C(F)(F)F)c(OC)c(OC)c21 [HA-727, 5-butyl-2-(1′,1′,1′,3′,3′,3′-hexafluoro-2′-hydroxypropan-2′-yl)-3,4,8-trimethoxy-phenanthridin-6(5H)-one]",4.8,> 10,,,,
CCCCn1c(=O)c2cc3c(cc2c2cc(C(O)(C(F)(F)F)C(F)(F)F)c4c(c21)OCO4)OCO3 [HA-754],5,> 10,,,,
CC(C)Cn1c(=O)c2ccccc2c2cc(C(O)(C(F)(F)F)C(F)(F)F)ccc21 [KZ01],5.4,> 10,,,,
CCCCn1c(=O)c2ccccc2c2cc(C(O)(C(F)(F)F)C(F)(F)F)cc(C)c21 [KZ07],3.3,,,,,CC50 (VeroE6/TMPRSS2 cells [4]): > 10 µM
CCCCn1c(=O)c2ccccc2c2cc(C(O)(C(F)(F)F)C(F)(F)F)cc(OC)c21 [KZ08],2.9,> 10,,,,
CCCCn1c(=O)c2cc(OC)ccc2c2cc(C(O)(C(F)(F)F)C(F)(F)F)ccc21 [KZ12],8.8,> 10,,,,
CCCCn1c(=O)c2cc(C)ccc2c2cc(C(O)(C(F)(F)F)C(F)(F)F)ccc21 [KZ24],4.1,,,,,CC50 (VeroE6/TMPRSS2 cells [4]): > 10 µM
"CCCCn1c(=O)c2cc3c(cc2c2cc(C(O)(C(F)(F)F)C(F)(F)F)ccc21)OCO3 [KZ26, 5-butyl-2-(1′,1′,1′,3′,3′,3′-hexafluoro-2′-hydroxypropan-2′-yl)-[1,3] dioxolo[4,5-j] phenanthridin-6(5H)-one]",2.9,> 10,,,,
"CCCCn1c(=O)c2c(OC)cccc2c2cc(C(O)(C(F)(F)F)C(F)(F)F)ccc21 [KZ31, 5-butyl-2-(1′,1′,1′,3′,3′,3′-hexafluoro-2′-hydroxypropan-2′-yl)-7-methoxy-phenanthridin-6(5H)-one]",3.3,> 10,,,,
"CCCCn1c(=O)c2ccc(OC)cc2c2cc(C(O)(C(F)(F)F)C(F)(F)F)ccc21 [KZ32, 5-butyl-2-(1′,1′,1′,3′,3′,3′-hexafluoro-2′-hydroxypropan-2′-yl)-9-methoxy-phenanthridin-6(5H)-one]",1.8,> 10,7.37,1.03,> 20,
"CCCCn1c(=O)c2cccc(OC)c2c2cc(C(O)(C(F)(F)F)C(F)(F)F)ccc21 [KZ33, 5-butyl-2-(1′,1′,1′,3′,3′,3′-hexafluoro-2′-hydroxypropan-2′-yl)-10-methoxy-phenanthridin-6(5H)-one]",4.1,> 10,,,,
"CCCCn1c(=O)c2ccc(OCCO)cc2c2cc(C(O)(C(F)(F)F)C(F)(F)F)ccc21 [NR-04, 5-butyl-2-(1,1,1,3,3,3-hexafluoro-2-hydroxypropan-2-yl)-9-(2-hydroxyethoxy)-phenanthridin-6(5H)-one]",,,3.72,0.489,> 20,
CCCCn1c(=O)c2cc(O)ccc2c2cc(C(O)(C(F)(F)F)C(F)(F)F)cc(OC)c21 [NR-19],,,4.44,0.61,> 20,
CCCCn1c(=O)c2cc(OCCO)ccc2c2cc(C(O)(C(F)(F)F)C(F)(F)F)cc(OC)c21 [NR-26],,,14.8,1.24,> 20,

Molecule,EC50 (SARS-CoV-2 (WK-521) [1]) [µM],CC50 at 3 days (in vitro [3]) [µM],IC90 (SARS-CoV-2 (WK-521) [5]) [µM],IC50 (SARS-CoV-2 (WK-521) [5]) [µM],CC50 at 3 days (in vitro [6]) [µM],also measured
"CCCCn1c(=O)c2ccc(OCC(C)(C)O)cc2c2cc(C(O)(C(F)(F)F)C(F)(F)F)ccc21 [NR-32, 5-butyl-2-(1,1,1,3,3,3-hexafluoro-2-hydroxypropan-2-yl)-9-(2-hydroxy-2-methylpropyloxy)phenanthridin-6(5H)-one]",,,2.34,0.27,> 20,
CCCCn1c(=O)c2ccc(OC(CO)CO)cc2c2cc(C(O)(C(F)(F)F)C(F)(F)F)ccc21 [NR-46],,,3.76,0.44,> 20,
CCCCn1c(=O)c2cc(NC(=O)C3CC3)ccc2c2cc(C(O)(C(F)(F)F)C(F)(F)F)ccc21 [NR-51],,,1.8,0.3,8.4,
CCCCn1c(=O)c2cc(O)c(OC3(C)CNC3)cc2c2cc(C(O)(C(F)(F)F)C(F)(F)F)ccc21 [NR-58],,,4.69,1.04,10.6,
CCCCn1c(=O)c2cc(F)c(OCCN(C)C)cc2c2cc(C(O)(C(F)(F)F)C(F)(F)F)ccc21 [NR-60],,,> 10,0.95,6.73,
CCCCn1c(=O)c2cc(F)c(OCCO)cc2c2cc(C(O)(C(F)(F)F)C(F)(F)F)ccc21 [NR-61],,,4.99,1.09,19,
CCCCn1c(=O)c2cc(F)c(OCCNC(C)=O)cc2c2cc(C(O)(C(F)(F)F)C(F)(F)F)ccc21 [NR-62],,,7.82,1.28,13,
CCCCn1c(=O)c2cc(F)c(OCC(N)=O)cc2c2cc(C(O)(C(F)(F)F)C(F)(F)F)ccc21 [NR-63],,,2.48,0.21,> 20,
CCCCn1c(=O)c2cc(F)c(O[C@@H]3COC[C@@H]3O)cc2c2cc(C(O)(C(F)(F)F)C(F)(F)F)ccc21 [NR-65],,,6.76,0.2,18.2,
CCCCn1c(=O)c2cc(F)c(OC3CCOC3)cc2c2cc(C(O)(C(F)(F)F)C(F)(F)F)ccc21 (centres unmarked) [NR-66],,,5.66,0.8,13.9,
CCCCn1c(=O)c2cc(OC3CCOC3)c(OC3CCOC3)cc2c2cc(C(O)(C(F)(F)F)C(F)(F)F)ccc21 (centres unmarked) [NR-67],,,> 10,1.32,19,
CCCCn1c(=O)c2cc(F)c(OC3COC3)cc2c2cc(C(O)(C(F)(F)F)C(F)(F)F)ccc21 [NR-80],,,6.16,0.59,19.1,
CCCCn1c(=O)c2cc(F)c(OCC(O)CO)cc2c2cc(C(O)(C(F)(F)F)C(F)(F)F)ccc21 (centres unmarked) [NR-82],,,8.57,0.95,14.5,
CCCCn1c(=O)c2cc3c(cc2c2cc(C(O)(C(F)(F)F)C(F)(F)F)ccc21)OC1COCC1O3 (centres unmarked) [NR-84],,,5.83,1.74,> 20,
CCCCn1c(=O)c2ccc(OCC(C)=O)cc2c2cc(C(O)(C(F)(F)F)C(F)(F)F)ccc21 [NR-93],,,3.27,0.243,,CC50 (HEK293T/ACE2 cells): > 20 µM
CCCCn1c(=O)c2ccc(OCC(=O)NC)cc2c2cc(C(O)(C(F)(F)F)C(F)(F)F)ccc21 [NR-97],,,3.27,0.24,> 20,
"CCCCn1c(=O)c2ccc(O)cc2c2cc(C(O)(C(F)(F)F)C(F)(F)F)ccc21 [YN029, 5-butyl-2-(1′,1′,1′,3′,3′,3′-hexafluoro-2′-hydroxypropan-2′-yl) hydroxyphenanthridin-6(5H)-one]",1.9,> 10,3.04,0.588,16.9,
CCCCn1c(=O)c2ccc(C)cc2c2cc(C(O)(C(F)(F)F)C(F)(F)F)ccc21 [YN033],6,,,,,CC50 (VeroE6/TMPRSS2 cells [4]): > 10 µM
